The values that follow come from article PMC3551614 (Journal of the American Chemical Society, 2012).

Structures are written as SMILES. Numbered stars: 1 amine (or outer) side, 2 acyl side, 3 side chain; on linkers, the order of the positions; unused ones are H or OH. Bridge positions count the residues as written; N and C are the ends. Square brackets hold non-standard residues; d marks the D form. Peptide text beside a SMILES is read from it. * marks the point of attachment. 5FAM = O=C1OC2(c3ccc(O)cc3Oc3cc(O)ccc32)c2ccc(C(=O)*)cc21; X1 = O=C([C@H]1CNC[C@@H]1N[*:1])[*:2]; β3hE = N[C@@H](CCC(=O)O)CC(=O)O; β3hN = NC(=O)C[C@H](N)CC(=O)O; β3hL = CC(C)C[C@H](N)CC(=O)O; Nle = CCCC[C@H](N)C(=O)O

The experiment deals with T1, VEGF (Homo sapiens, UniProt P15692).
T1 sequence (P15692 1-191 isoform P15692-4): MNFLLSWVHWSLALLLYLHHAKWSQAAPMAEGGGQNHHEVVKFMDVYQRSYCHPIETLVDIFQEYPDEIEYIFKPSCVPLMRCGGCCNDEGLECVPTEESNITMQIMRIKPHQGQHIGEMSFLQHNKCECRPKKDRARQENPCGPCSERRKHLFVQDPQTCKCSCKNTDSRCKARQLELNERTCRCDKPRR
In words: direct FP binding of N-terminal fluorescein derivatives. The note with it: domain 2 of VEGFR1 as competitor.

As for `CCCC[C@@H]1NC(=O)[C@H](C(C)C)NC(=O)[C@H](Cc2c[nH]cn2)NC(=O)[C@H]([C@@H](C)CC)NC(=O)[C@H](CC(=O)O)NC(=O)[C@@H](NC(=O)C[C@H](CC(N)=O)NC(=O)[C@@H]2CCCN2C(=O)C[C@H](CCC(=O)O)NC(=O)[C@@H](NC(=O)c2ccc3c(c2)C(=O)OC32c3ccc(O)cc3Oc3cc(O)ccc32)C(C)C)CSSC[C@@H](C(=O)N[C@@H](Cc2ccccc2)C(=O)N[C@H]2CNC[C@@H]2C(=O)N[C@@H](CCCNC(=N)N)C(=O)N[C@H](CC(N)=O)CC(C)C)NC(=O)[C@H](CCC(=O)O)NC(=O)[C@H](Cc2c[nH]c3ccccc23)NC(=O)C[C@H](CCC(=O)O)NC(=O)[C@H](Cc2c[nH]c3ccccc23)NC1=O` [Flu-3] (5FAM-V[β3hE]P[β3hN]CDIHV[Nle]W[β3hE]WECF[X1]R[β3hL]-NH2; disulfide 5-15; N-terminus and C-terminus assumed), the “displacement from VEGF by domain 2 of VEGFR1” value was “displaces”.
